# According to ChEMBL document CHEMBL1126468, “Antineoplastic bicyclicsulfonylureas” (Bioorg Med Chem Lett, 1992):
# Test system: Mus musculus
# Assay: Percent inhibition is the ratio of tumor weight of treated animals at a dose 160 mg/kg given daily to 8 mice perorally versus the untreated control mice infected with 6C3HED lymphosarcoma
# Format: functional
# Conditions: route oral
row,Structure (SMILES),inhibition in vivo at 160 mg/kg
1,O=C(Nc1ccc(Cl)cc1)NS(=O)(=O)c1ccc2ccoc2c1,100%

# Test system: not listed separately
# Assay: Inhibition of tumor growth in 6C3HED lymphosarcoma inoculated mice following 150 mg/kg p.o. o.d.
# Format: functional
# Conditions: Mus musculus, route oral
row,Structure (SMILES),inhibition in vivo at 150 mg/kg
1,O=C(Nc1ccc(Cl)cc1)NS(=O)(=O)c1ccc2cc[nH]c2c1,37%
2,O=C(Nc1ccc(Cl)cc1)NS(=O)(=O)c1ccc2occc2c1,100%
3,Cc1ccc2sc(S(=O)(=O)NC(=O)Nc3ccc(Cl)cc3)cc2c1,10%
4,COc1cc(S(=O)(=O)NC(=O)Nc2ccc(Cl)cc2)cc2ccoc12,51%
5,Cc1ccc(NC(=O)NS(=O)(=O)c2ccc3occc3c2)cc1,84%
6,Cc1cccc2cc(S(=O)(=O)NC(=O)Nc3ccc(Cl)cc3)oc12,21%
7,O=C(Nc1ccc(Cl)cc1)NS(=O)(=O)c1cccc2occc12,84%
8,O=C(Nc1ccc(Cl)cc1)NS(=O)(=O)c1cc2ccccc2[nH]1,26%
9,O=C(Nc1ccc(Cl)cc1)NS(=O)(=O)c1csc2ccccc12,43%
10,O=C(Nc1ccc(Cl)cc1)NS(=O)(=O)c1cc2cc(Cl)ccc2o1,40%
11,Cc1ccc2oc(S(=O)(=O)NC(=O)Nc3ccc(Cl)cc3)cc2c1,6%
12,Cc1cc2cc(S(=O)(=O)NC(=O)Nc3ccc(Cl)cc3)ccc2o1,57%
13,Cc1ccc(NC(=O)NS(=O)(=O)c2cc3ccccc3o2)cc1,11%
14,O=C(Nc1ccc(Cl)cc1)NS(=O)(=O)c1cc2ccccc2o1,84%
15,O=C(Nc1ccc(Br)cc1)NS(=O)(=O)c1cc2ccccc2o1,48%
16,O=C(Nc1ccc(Cl)c(Cl)c1)NS(=O)(=O)c1cc2ccccc2o1,28%
17,COc1ccc2oc(S(=O)(=O)NC(=O)Nc3ccc(Cl)cc3)cc2c1,25%
18,O=C(Nc1ccc(Cl)cc1)NS(=O)(=O)c1cc2cccc(Br)c2o1,18%
19,Cc1coc2ccc(S(=O)(=O)NC(=O)Nc3ccc(Cl)cc3)cc12,44%
20,Cc1cc(S(=O)(=O)NC(=O)Nc2ccc(Cl)cc2)cc2ccoc12,89%
21,O=C(Nc1ccc(Cl)cc1)NS(=O)(=O)c1cc2ccccc2s1,47%

# Test system: Mus musculus
# Assay: Percent inhibition is the ratio of tumor weight of treated animals at a dose 80 mg/kg given daily to 8 mice perorally versus the untreated control mice infected with 6C3HED lymphosarcoma
# Format: functional
# Conditions: route oral
row,Structure (SMILES),inhibition in vivo at 80 mg/kg
1,O=C(Nc1ccc(Cl)cc1)NS(=O)(=O)c1ccc2sccc2c1,44%
